Experimental data as given in patent US7608626B2, “Substituted indolizines and derivatives as CNS agents” (Wyeth, priority 2004, dated 2009).
Counter-ions that a name gives are not always drawn. Like-named read-outs stand apart in the source and are kept apart here.

Assays:
[1] = molecular target: T1, human 5-hydroxytryptamine-2C (h-5-HT2C) receptor (Homo sapiens, UniProt P28335); assay: [125I]DOI binding to membranes of CHO cells expressing h-5-HT2C receptor
T1 construct: expressed in transfected cells; host or cells: Chinese Hamster Ovary (CHO) cells; membrane preparation
T1 sequence (P28335 33-458): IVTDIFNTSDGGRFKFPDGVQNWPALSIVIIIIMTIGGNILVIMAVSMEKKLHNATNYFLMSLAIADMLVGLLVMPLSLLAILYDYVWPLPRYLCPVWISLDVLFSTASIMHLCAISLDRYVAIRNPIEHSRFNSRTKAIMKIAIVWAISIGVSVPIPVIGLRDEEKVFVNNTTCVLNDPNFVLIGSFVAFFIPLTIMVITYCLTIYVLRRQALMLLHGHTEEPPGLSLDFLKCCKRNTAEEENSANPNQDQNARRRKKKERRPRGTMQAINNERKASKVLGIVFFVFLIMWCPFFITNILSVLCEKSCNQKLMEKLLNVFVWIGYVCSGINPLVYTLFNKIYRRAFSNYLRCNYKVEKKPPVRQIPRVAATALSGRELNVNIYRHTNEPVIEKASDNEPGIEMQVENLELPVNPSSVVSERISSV

human 5-HT2C receptor = molecular target: T2, human 5-HT2C receptor (Homo sapiens, UniProt P28335); assay: 5-HT2C receptor-stimulated calcium mobilization (FLIPR) in CHO cells; type: cell-based; details: for Emax: CHO, read-out: 5-HT2C Function Emax (%); for EC50: calcium mobilization, CHO cells, read-out: 5-HT2C Function EC50
T2 construct: expressed in transfected cells
T2 sequence (P28335 33-458): T1 sequence (P28335 33-458)

Row | SMILES | melting point | Ki ([1]; read-out: 5-HT2C Affinity Ki) [nM] | other results
1 | CCc1c(CCN)c2ccccn2c1CC (as salt: fumaric acid salt) [Example 5, 2-(2,3-diethylindolizin-1-yl)ethylamine] | 166 to 171 °C |  | 
2 | CCCc1c(CC)c(CCN)c2ccccn12 (as salt: fumaric acid salt) [Example 7, 2-(2-ethyl-3-propylindolizin-1-yl)ethylamine] | 154 to 158 °C |  | 
3 | CCCc1c(C)c(CC(N)CC)c2ccccn12 (stereo not drawn) [Example 11, 1-(2-methyl-3-propylindolizin-1-yl)butan-2-amine] |  | 457 | 
4 | CCCc1c(-c2ccccc2)c(CCN)c2ccccn12 [Example 3, 2-(2-phenyl-3-propylindolizin-1-yl)ethylamine] |  | 54 | 
5 | CCc1cn2ccccc2c1CCN (as salt: fumaric acid salt) [Example 4, 2-(2-ethylindolizin-1-yl)ethylamine] | 170 to 175 °C (dec.) |  | 
6 | CCNCCc1c(CC)c(CC)n2ccccc12 [Example 6, N-[2-(2,3-diethylindolizin-1-yl)ethyl]-N-ethylamine] |  | 228 | 
7 | CCc1c(CCN)c2ccccn2c1CC [Example 5, 2-(2,3-diethylindolizin-1-yl)ethylamine] |  |  | Ki [1]: 35 nM; Emax (human 5-HT2C receptor): 80%; EC50 (human 5-HT2C receptor): 11 nM
8 | CCCc1c(-c2ccccc2)c(CCN)c2ccccn12 (as salt: fumaric acid salt) [Example 3, 2-(2-phenyl-3-propylindolizin-1-yl)ethylamine] | 169 to 172 °C |  | 
9 | CCc1c(-c2ccccc2)c(CCN)c2ccccn12 [Example 2, 2-(3-ethyl-2-phenylindolizin-1-yl)ethylamine] |  | 117 | 
10 | CCCc1c(C)c(CC(C)N)c2ccccn12 (stereo not drawn) [Example 10, 1-(2-methyl-3-propylindolizin-1-yl)propan-2-amine] |  |  | Ki [1]: 17 nM; Emax (human 5-HT2C receptor): 90%; EC50 (human 5-HT2C receptor): 46 nM
11 | CCCc1c(CC)c(CCN)c2ccccn12 [Example 7, 2-(2-ethyl-3-propylindolizin-1-yl)ethylamine] |  |  | Ki [1]: 21 nM; Emax (human 5-HT2C receptor): 100%; EC50 (human 5-HT2C receptor): 19 nM
12 | NCCc1c2c(n3ccccc13)CCCC2 [Example 12, 2-(1,2,3,4-tetrahydropyrido[1,2-a]indol-10-yl)ethylamine] |  |  | Ki [1]: 98 nM
13 | CCCc1c(CC)c(CC(C)N)c2ccccn12 (stereo not drawn) (as salt: fumaric acid salt) [Example 9, 2-(2-ethyl-3-propylindolizin-1-yl)-1-methylethylamine] | 184 to 186 °C |  | 
14 | NCCc1c(-c2ccccc2)cn2ccccc12 [Example 1, 2-(2-phenylindolizin-1-yl)ethylamine] |  | 272 | 
15 | CCc1cn2ccccc2c1CCN [Example 4, 2-(2-ethylindolizin-1-yl)ethylamine] |  |  | Ki [1]: 121 nM
16 | CCCc1c(CC)c(CC(C)N)c2ccccn12 (stereo not drawn) [Example 9, 2-(2-ethyl-3-propylindolizin-1-yl)-1-methylethylamine] |  | 124 | 
17 | CCNCCc1c(CC)c(CC)n2ccccc12 (as salt: fumaric acid salt) [Example 6, N-[2-(2,3-diethylindolizin-1-yl)ethyl]-N-ethylamine] | 154 to 158 °C |  | 
18 | CCc1c(-c2ccccc2)c(CCN)c2ccccn12 (as salt: fumaric acid salt) [Example 2, 2-(3-ethyl-2-phenylindolizin-1-yl)ethylamine] | 173 to 176 °C |  | 
19 | CCCc1c(C)c(CC(C)N)c2ccccn12 (stereo not drawn) (as salt: fumaric acid salt) [Example 10, 1-(2-methyl-3-propylindolizin-1-yl)propan-2-amine] | 147 to 150 °C |  | 
20 | CSc1ccc2c(c1)C(N1CCN(C)CC1)Cc1ccccc1S2 (stereo not drawn) [Methiothepin, reference compound] |  |  | Ki ([1]; reference compounds, [125I]DOI radioligand, CHO cell membranes, read-out: Ki (95% confidence interval)): 4.6 nM
21 | CCCNCCc1c(CC)c(CCC)n2ccccc12 [Example 8] |  | 208 | 
